Data on 1 compound can be found in ChEMBL document CHEMBL4152360 (Bioorg Med Chem, 2018).

Assay [1] addresses Casein kinase II subunit alpha (Homo sapiens, UniProt P68400). The assay can be described thus: Inhibition of human CK2alpha assessed as enzyme residual activity at 100 nM by radiometric filter binding assay relative to control.
Assay [2] deals with Dual specificity tyrosine-phosphorylation-regulated kinase 1A (Homo sapiens) (UniProt Q13627). The assay can be described thus: Inhibition of human DYRK1alpha assessed as enzyme residual activity at 100 nM by radiometric filter binding assay relative to control.
The target in assay [3] is AMP-activated protein kinase, AMPK (Homo sapiens) (UniProt P54646+O43741+P54619+Q9UGJ0+Q9Y478+Q13131+Q9UGI9). Put plainly: Inhibition of human AMPK assessed as enzyme residual activity at 100 nM by radiometric filter binding assay relative to control. It is filed as protein-complex assay.
Assay [4] has as its target Mitogen-activated protein kinase kinase kinase 11 (Homo sapiens) (UniProt Q16584). Put plainly: Inhibition of human MLK3 assessed as enzyme residual activity at 100 nM by radiometric filter binding assay relative to control.
The target of assay [5] is Serine/threonine-protein kinase TBK1 (Homo sapiens) (UniProt Q9UHD2). Put plainly: Inhibition of human TBK1 assessed as enzyme residual activity at 100 nM by radiometric filter binding assay relative to control.
Assay [6] addresses Serine/threonine-protein kinase PLK1 (Homo sapiens) (UniProt P53350). Put plainly: Inhibition of human PLK1 assessed as enzyme residual activity at 100 nM by radiometric filter binding assay relative to control.
In assay [7] the target is Receptor-interacting serine/threonine-protein kinase 2 (Homo sapiens) (UniProt O43353). The assay can be described thus: Inhibition of human RIPK2 assessed as enzyme residual activity at 100 nM by radiometric filter binding assay relative to control.
Assay [8] addresses Tyrosine-protein kinase JAK3 (Homo sapiens) (UniProt P52333). The assay can be described thus: Inhibition of human JAK3 assessed as enzyme residual activity at 100 nM by radiometric filter binding assay relative to control.
Assay [9] concerns the target Mitogen-activated protein kinase 8 (Homo sapiens) (UniProt P45983). The assay can be described thus: Inhibition of human JNK1 assessed as enzyme residual activity at 100 nM by radiometric filter binding assay relative to control.
Assay [10] addresses Dual specificity mitogen-activated protein kinase kinase 1 (Homo sapiens) (UniProt Q02750). Put plainly: Inhibition of human MKK1 assessed as enzyme residual activity at 100 nM by radiometric filter binding assay relative to control.
Assay [11] concerns the target Serine/threonine-protein kinase pim-1 (Homo sapiens) (UniProt P11309). Put plainly: Inhibition of human PIM1 assessed as enzyme residual activity at 100 nM by radiometric filter binding assay relative to control.
A further assay is filed under the species Homo sapiens. Put plainly: Inhibition of human PKA assessed as enzyme residual activity at 100 nM by radiometric filter binding assay relative to control.
For assay [12], the target named is Protein kinase C alpha type (Homo sapiens) (UniProt P17252). The assay can be described thus: Inhibition of human PKCalpha assessed as enzyme residual activity at 100 nM by radiometric filter binding assay relative to control.
Assay [13] addresses Rho-associated protein kinase 2 (Rattus norvegicus) (UniProt Q62868). Put plainly: Inhibition of rat ROCK2 assessed as enzyme residual activity at 100 nM by radiometric filter binding assay relative to control.
Assay [14] concerns the target Tyrosine-protein kinase BTK (Homo sapiens) (UniProt Q06187). Put plainly: Inhibition of human BTK assessed as enzyme residual activity at 100 nM by radiometric filter binding assay relative to control.
Assay [15] deals with Proto-oncogene tyrosine-protein kinase LCK (Mus musculus) (UniProt P06240). Put plainly: Inhibition of mouse Lck assessed as enzyme residual activity at 100 nM by radiometric filter binding assay relative to control.
Assay [16] addresses Interleukin-1 receptor-associated kinase 4 (Homo sapiens) (UniProt Q9NWZ3). Put plainly: Inhibition of human IRAK4 assessed as enzyme residual activity at 100 nM by radiometric filter binding assay relative to control.
In assay [17] the target is RAC-alpha serine/threonine-protein kinase (Homo sapiens) (UniProt P31749). The assay can be described thus: Inhibition of human PKBa assessed as enzyme residual activity at 100 nM by radiometric filter binding assay relative to control.
For assay [18], the target named is Ephrin type-A receptor 2 (Homo sapiens) (UniProt P29317). Put plainly: Inhibition of human EPHA2 assessed as enzyme residual activity at 100 nM by radiometric filter binding assay relative to control.
Assay [19] concerns the target Serine/threonine-protein kinase N2 (Homo sapiens) (UniProt Q16513). The assay can be described thus: Inhibition of human PRK2 assessed as enzyme residual activity at 100 nM by radiometric filter binding assay relative to control.
The target of assay [20] is Calcium/calmodulin-dependent protein kinase type 1 (Homo sapiens) (UniProt Q14012). Put plainly: Inhibition of human CaMK1alpha assessed as enzyme residual activity at 100 nM by radiometric filter binding assay relative to control.

Sequence of Serine/threonine-protein kinase TBK1 (Homo sapiens) (Q9UHD2 whole entry): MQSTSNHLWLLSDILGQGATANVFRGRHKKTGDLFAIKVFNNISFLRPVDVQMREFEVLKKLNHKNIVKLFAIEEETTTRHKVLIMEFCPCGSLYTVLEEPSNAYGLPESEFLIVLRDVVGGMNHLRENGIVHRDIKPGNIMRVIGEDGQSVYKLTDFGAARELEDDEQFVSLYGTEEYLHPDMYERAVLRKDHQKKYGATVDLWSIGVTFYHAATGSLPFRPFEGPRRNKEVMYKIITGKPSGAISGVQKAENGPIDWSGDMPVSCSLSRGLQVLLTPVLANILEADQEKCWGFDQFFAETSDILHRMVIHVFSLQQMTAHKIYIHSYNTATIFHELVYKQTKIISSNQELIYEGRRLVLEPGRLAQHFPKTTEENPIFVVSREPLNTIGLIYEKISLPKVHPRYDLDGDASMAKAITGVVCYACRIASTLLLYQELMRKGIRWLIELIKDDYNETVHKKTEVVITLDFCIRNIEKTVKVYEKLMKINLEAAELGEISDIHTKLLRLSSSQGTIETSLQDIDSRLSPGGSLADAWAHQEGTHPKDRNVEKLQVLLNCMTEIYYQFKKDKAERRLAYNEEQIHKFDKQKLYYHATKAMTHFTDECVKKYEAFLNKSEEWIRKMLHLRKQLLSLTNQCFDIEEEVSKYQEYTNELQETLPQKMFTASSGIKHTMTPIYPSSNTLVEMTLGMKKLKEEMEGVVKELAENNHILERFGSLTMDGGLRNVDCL
Sequence of Casein kinase II subunit alpha (P68400 whole entry, looked up): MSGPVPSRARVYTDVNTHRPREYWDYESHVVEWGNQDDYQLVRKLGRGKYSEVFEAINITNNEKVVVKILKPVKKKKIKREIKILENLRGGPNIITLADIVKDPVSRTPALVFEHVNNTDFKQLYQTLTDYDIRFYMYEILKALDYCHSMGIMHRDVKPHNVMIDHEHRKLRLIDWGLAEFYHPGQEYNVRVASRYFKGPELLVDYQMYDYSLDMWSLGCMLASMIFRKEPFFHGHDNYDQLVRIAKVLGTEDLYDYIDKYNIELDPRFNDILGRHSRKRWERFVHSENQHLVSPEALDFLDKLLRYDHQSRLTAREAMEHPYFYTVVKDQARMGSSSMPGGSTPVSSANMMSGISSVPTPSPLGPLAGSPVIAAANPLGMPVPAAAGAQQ
Sequence of Serine/threonine-protein kinase N2 (Homo sapiens) (Q16513 whole entry, looked up): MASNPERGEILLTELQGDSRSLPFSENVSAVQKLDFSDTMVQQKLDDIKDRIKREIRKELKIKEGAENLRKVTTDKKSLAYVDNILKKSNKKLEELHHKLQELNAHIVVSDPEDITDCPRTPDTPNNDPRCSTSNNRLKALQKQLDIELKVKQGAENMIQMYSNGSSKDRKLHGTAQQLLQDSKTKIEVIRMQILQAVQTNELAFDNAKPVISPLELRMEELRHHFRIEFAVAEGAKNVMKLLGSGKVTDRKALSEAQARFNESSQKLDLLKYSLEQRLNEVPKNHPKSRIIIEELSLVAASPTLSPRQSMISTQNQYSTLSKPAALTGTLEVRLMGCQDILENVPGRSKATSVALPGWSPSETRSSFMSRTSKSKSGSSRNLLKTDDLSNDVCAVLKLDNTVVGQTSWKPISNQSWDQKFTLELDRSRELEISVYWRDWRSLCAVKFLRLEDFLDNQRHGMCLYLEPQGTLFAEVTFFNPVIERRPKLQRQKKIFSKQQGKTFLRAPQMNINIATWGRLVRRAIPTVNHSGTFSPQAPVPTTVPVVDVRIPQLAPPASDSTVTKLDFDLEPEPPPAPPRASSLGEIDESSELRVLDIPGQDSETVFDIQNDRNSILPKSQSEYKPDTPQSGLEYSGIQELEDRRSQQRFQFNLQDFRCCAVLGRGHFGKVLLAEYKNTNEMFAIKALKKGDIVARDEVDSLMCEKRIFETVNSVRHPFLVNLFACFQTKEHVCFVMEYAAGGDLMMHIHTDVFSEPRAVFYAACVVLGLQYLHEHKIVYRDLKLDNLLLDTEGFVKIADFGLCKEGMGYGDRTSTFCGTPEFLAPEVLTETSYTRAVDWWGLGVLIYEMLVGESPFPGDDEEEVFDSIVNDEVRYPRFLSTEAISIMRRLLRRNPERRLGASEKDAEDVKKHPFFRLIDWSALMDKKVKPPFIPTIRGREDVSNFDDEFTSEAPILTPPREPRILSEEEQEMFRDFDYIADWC
Sequence of Dual specificity mitogen-activated protein kinase kinase 1 (Homo sapiens) (Q02750 whole entry): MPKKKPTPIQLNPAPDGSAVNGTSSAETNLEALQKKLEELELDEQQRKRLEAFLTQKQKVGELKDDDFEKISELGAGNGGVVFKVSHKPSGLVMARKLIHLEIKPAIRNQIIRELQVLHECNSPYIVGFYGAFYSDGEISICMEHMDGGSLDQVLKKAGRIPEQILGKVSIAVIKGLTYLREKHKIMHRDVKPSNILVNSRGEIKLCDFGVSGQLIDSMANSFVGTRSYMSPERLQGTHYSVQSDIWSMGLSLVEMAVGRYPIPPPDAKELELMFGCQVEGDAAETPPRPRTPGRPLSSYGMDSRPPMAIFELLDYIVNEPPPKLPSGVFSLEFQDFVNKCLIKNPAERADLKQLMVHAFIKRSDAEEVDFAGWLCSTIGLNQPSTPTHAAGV
Sequence of Tyrosine-protein kinase BTK (Homo sapiens) (Q06187 whole entry): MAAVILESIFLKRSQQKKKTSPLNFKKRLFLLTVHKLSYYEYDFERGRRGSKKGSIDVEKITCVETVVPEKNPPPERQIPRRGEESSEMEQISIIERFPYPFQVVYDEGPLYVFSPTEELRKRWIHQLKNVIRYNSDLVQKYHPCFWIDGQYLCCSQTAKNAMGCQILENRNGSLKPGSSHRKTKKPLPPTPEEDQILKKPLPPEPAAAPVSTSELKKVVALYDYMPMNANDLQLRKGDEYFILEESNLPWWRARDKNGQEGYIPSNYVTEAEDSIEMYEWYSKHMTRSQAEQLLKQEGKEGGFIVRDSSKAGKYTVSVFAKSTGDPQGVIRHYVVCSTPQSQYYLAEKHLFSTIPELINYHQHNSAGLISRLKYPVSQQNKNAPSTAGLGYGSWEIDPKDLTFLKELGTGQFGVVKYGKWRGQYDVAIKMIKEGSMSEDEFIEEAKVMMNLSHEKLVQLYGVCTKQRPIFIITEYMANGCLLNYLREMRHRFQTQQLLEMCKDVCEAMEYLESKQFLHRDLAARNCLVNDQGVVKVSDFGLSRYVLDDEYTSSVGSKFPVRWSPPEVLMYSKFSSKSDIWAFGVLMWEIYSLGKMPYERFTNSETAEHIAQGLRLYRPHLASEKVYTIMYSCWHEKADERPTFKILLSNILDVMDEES
Sequence of Tyrosine-protein kinase JAK3 (Homo sapiens) (P52333 whole entry): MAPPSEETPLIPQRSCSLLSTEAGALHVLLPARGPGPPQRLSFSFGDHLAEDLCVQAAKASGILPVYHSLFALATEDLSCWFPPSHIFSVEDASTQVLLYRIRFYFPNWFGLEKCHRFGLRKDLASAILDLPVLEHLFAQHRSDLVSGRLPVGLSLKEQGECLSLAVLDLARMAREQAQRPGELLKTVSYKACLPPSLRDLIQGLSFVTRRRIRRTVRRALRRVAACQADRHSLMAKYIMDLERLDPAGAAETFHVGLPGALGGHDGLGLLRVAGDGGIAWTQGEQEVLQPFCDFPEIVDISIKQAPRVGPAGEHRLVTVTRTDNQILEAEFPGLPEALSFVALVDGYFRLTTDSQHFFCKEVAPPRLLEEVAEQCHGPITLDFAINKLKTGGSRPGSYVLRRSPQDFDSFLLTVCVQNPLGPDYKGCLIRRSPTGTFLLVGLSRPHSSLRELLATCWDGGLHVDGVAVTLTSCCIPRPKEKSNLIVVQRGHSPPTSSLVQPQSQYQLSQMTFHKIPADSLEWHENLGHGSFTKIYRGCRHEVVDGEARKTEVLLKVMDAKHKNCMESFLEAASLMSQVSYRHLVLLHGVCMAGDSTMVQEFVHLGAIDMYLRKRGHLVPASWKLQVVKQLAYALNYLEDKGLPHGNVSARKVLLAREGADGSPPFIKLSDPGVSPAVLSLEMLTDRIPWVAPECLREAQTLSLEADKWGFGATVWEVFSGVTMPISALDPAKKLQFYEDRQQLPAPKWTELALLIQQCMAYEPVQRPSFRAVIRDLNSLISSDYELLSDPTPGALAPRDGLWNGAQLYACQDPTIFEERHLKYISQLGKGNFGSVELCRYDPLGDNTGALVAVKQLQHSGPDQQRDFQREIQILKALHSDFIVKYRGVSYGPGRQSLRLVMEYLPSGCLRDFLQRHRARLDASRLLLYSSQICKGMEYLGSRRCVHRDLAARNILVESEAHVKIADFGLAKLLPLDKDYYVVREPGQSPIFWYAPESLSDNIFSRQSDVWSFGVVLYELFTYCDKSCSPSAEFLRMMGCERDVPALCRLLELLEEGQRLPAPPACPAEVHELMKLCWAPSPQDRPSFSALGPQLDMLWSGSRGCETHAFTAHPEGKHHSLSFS

Regarding `NCCCC[C@@H](NC(=O)[C@@H](CC(=O)O)NC(=O)[C@@H](CC(=O)O)NC(=O)[C@@H](CC(=O)O)NC(=O)[C@@H](CC(=O)O)NC(=O)[C@@H](CC(=O)O)NC(=O)[C@@H](CC(=O)O)NC(=O)CCCCCNC(=O)CCC(=O)Nc1ncc(-c2ccc(C(=O)O)cc2)s1)C(=O)O`, the Activity is 1.9% in [1]; 11.5% in assay [2]; 69% in [3]; 69% in assay [4]; 78% in assay [5]; 83% in assay [6]. The Activity in assay [7] came to 85%; in [8] it was 85%; in assay [9], 86%; in assay [10], 88%; in assay [11], 91%; in the assay listed under Homo sapiens, 92%. In addition, the Activity in assay [12] was 95%; in assay [13] it was 96.5%; in assay [14], 99%; in assay [15], 101%; in assay [16], 102%; in assay [17] it was 105%. The values for the Activity in assay [18], in assay [19] and in [20] were 107%, 109% and 111%, respectively.
